In patent US12286401B2, “Small molecules that sensitize HIV-1 infected cells to antibody dependent cellular cytotoxicity” (THE TRUSTEES OF THE UNIVERSITY OF PENNSYLVANIA, priority 2018, dated 2025):
“And” between values parts separate entries of the source, which are not always exact repeats. Equal values may be shown once.

Tests used:
[1] = test system: HIV-1JR-FL EnvΔCT expressed at the surface of HOS cells; experiment: Cell-based ELISA (CBE), 17b readout; settings: for Fold over BNM-III-170 - 17b binding (±0.05): MCG analogs 50 μM, BNM-III-170 5 μM, 2G12 and DMSO normalized; for capacity to expose the CoRBS (17b binding, CBE): compounds 50 μM, result in words
Method in brief: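 HOS cells transiently expressing cytoplasmic-tail-truncated HIV-1JR-FL Env were treated 30 min at room temperature with compounds (50 μM), sCD4 ([…]) or DMSO, then 1 h with 17b antibody. Bound 17b was detected by HRP-conjugated anti-Fc chemiluminescence; values are fold over BNM-III-170 (5 μM), normalized to 2G12 and DMSO.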

HIV-1CH58TF [2] = experiment: Virus neutralization in TZM-bl assay; type: cell-based; settings: Human immunodeficiency virus 1; TZM-bl cells; read-out: IC50, inhibition of HIV-1CH58TF infection
Description: (§1) To evaluate the direct virus-neutralizing ability of the analogs, I, HIV-1CH58TF was incubated with indicated amounts of different compounds or DMSO for 1 hour at 37° C., then added to TZM-bl cells. After incubation for 48 h at 37° C., luciferase activity was measured. Relative infectivity was calculated as the percentage of the value seen in the absence of compound. To measure the ability of (S)-MCG-IV-210 to sensitize viral particles to neutralization by otherwise non-neutralizing 17b (FIG. 15F), HIV-1CH58TF was incubated with the indicated amounts of 17b in the presence of 0.5 μM (+)-BNM-III-170, 20 μM (S)-MCG-IV-210 or DMSO for 1 hour at 37° C., then added to TZM-bl cells. After incubation for 48 h at 37° C., luciferase activity was measured.
As a positive control, (+)-BNM-III-170 was used, which has been reported to inhibit HIV-1 infection at low micromolar concentrations. See, Melillo, ACS Med Chem Lett 7:330-334. […] While all tested MCG analogs also neutralized HIV-1CH58TF, they did so with only modest potency (FIG. 15E).

HIV-1CH58TF [3] = experiment: Sensitization of viral particles to neutralization by 17b (TZM-bl); type: cell-based; settings: sub-inhibitory concentrations (20 μM (S)-MCG-IV-210)
Description: as §1
Another well-documented antiviral property of CD4mc is their capacity to sensitize viral particles to neutralization by otherwise non-neutralizing antibodies. See, Madani, 2018, Nat. Commun. 9:2363; Madani, 2014, J. Virol. 88:6542-6555; and Madani, 2016, J. Virol., 90:5031-5046. (S)-MCG-IV-210 was tested to determine if this compound shared this property.

[4] = test system: HIV-1CH58TF Env on virions; experiment: Virus-based ELISA (VBE) virus capture assay; type: cell-based

## CS(=O)(=O)N1CCC[C@H](C(=O)Nc2ccc(Br)cc2)C1 [(S)-MCG-III-027-A02]
[1]
  Fold over BNM-III-170 - 17b binding (±0.05): 0.36 fold

## CS(=O)(=O)N1CCC[C@H](C(=O)Nc2ccc(F)cc2)C1 [(S)-MCG-III-027-A03]
[1]
  Fold over BNM-III-170 - 17b binding (±0.05): 0.12 fold

## CS(=O)(=O)N1CCC[C@H](C(=O)Nc2cccc(Cl)c2)C1 [(S)-MCG-III-027-B01]
[1]
  Fold over BNM-III-170 - 17b binding (±0.05): 0.10 fold

## CS(=O)(=O)N1CCC[C@H](C(=O)Nc2cccc(Br)c2)C1 [(S)-MCG-III-027-B02]
[1]
  Fold over BNM-III-170 - 17b binding (±0.05): 0.10 fold

## CS(=O)(=O)N1CCC[C@H](C(=O)Nc2cccc(F)c2)C1 [(S)-MCG-III-027-B03]
[1]
  Fold over BNM-III-170 - 17b binding (±0.05): 0.13 fold

## CS(=O)(=O)N1CCC[C@H](C(=O)Nc2cccc(C(F)(F)F)c2)C1 [(S)-MCG-III-027-B04]
[1]
  Fold over BNM-III-170 - 17b binding (±0.05): 0.07 fold

## COc1cccc(NC(=O)[C@H]2CCCN(S(C)(=O)=O)C2)c1 [(S)-MCG-III-027-B05]
[1]
  Fold over BNM-III-170 - 17b binding (±0.05): 0.06 fold

## CS(=O)(=O)N1CCC[C@H](C(=O)Nc2ccccc2Cl)C1 [(S)-MCG-III-027-C01]
[1]
  Fold over BNM-III-170 - 17b binding (±0.05): 0.06 fold

## CS(=O)(=O)N1CCC[C@H](C(=O)Nc2ccc(F)cc2F)C1 [(S)-MCG-III-027-D04]
[1]
  Fold over BNM-III-170 - 17b binding (±0.05): 0.07 fold

## CS(=O)(=O)N1CCC[C@H](C(=O)Nc2ccc(Cl)c(F)c2)C1 [(S)-MCG-III-027-D05]
[1]
  Fold over BNM-III-170 - 17b binding (±0.05): 0.46 fold and 0.58 fold
  capacity to expose the CoRBS (17b binding, CBE): enhanced the capacity

## CCS(=O)(=O)N1CCC[C@H](C(=O)Nc2ccc(Cl)c(F)c2)C1 [(S)-MCG-III-085-C01]
[1]
  Fold over BNM-III-170 - 17b binding (±0.05): 0.35 fold

## Cn1cnc(S(=O)(=O)N2CCC[C@H](C(=O)Nc3ccc(Cl)c(F)c3)C2)c1 [(S)-MCG-III-116-A02]
[1]
  Fold over BNM-III-170 - 17b binding (±0.05): 0.24 fold

## COC(=O)N1CCC[C@H](C(=O)Nc2ccc(Cl)c(F)c2)C1 [(S)-MCG-III-188-A01]
[1]
  Fold over BNM-III-170 - 17b binding (±0.05): 0.50 fold
  capacity to expose the CoRBS (17b binding, CBE): higher activity

## CCOC(=O)N1CCC[C@H](C(=O)Nc2ccc(Cl)c(F)c2)C1 [(S)-MCG-III-188-A02]
[1]
  Fold over BNM-III-170 - 17b binding (±0.05): 0.53 fold
  capacity to expose the CoRBS (17b binding, CBE): higher activity

## CCCNC(=O)N1CCC[C@H](C(=O)Nc2ccc(Cl)c(F)c2)C1 [(S)-MCG-IV-031-A05]
[1]
  Fold over BNM-III-170 - 17b binding (±0.05): 0.55 fold
  capacity to expose the CoRBS (17b binding, CBE): higher activity

## NCCNC(=O)N1CCC[C@H](C(=O)Nc2ccc(Cl)c(F)c2)C1 [(S)-MCG-IV-210]
HIV-1CH58TF [2]
  IC50: 6.97 µM
[1]
  Fold over BNM-III-170 - 17b binding (±0.05): 0.58 fold
  capacity to expose the CoRBS (17b binding, CBE): higher activity
HIV-1CH58TF [3]
  neutralization by 17b of viral particles sensitized with compound: potently neutralized
[4]; 50 μM compound
  17b-mediated capture of virions: dramatic increase
[4]; 50 μM compound in combination with 5 μg/ml 17b
  virion capture by the A32 and C11 Cluster A antibodies: permit virion capture

## O=C(Nc1ccc(Cl)c(F)c1)C1CCCN(S(=O)(=O)c2ccccc2)C1 (stereo not shown) [MCG-III-157-B03]
[1]
  Fold over BNM-III-170 - 17b binding (±0.05): 0.43 fold

## Cn1cnc(S(=O)(=O)N2CCCC(C(=O)Nc3ccc(Cl)c(F)c3)C2)c1 (stereo not shown) [MCG-III-157-B04]
[1]
  Fold over BNM-III-170 - 17b binding (±0.05): 0.69 fold

## O=C(Nc1ccc(Cl)c(F)c1)C1CCCOC1 (stereo not shown) [MCG-III-207]
[1]
  Fold over BNM-III-170 - 17b binding (±0.05): 0.48 fold
